Experimental findings from patent US4321386A, “Quaternary piperidinium halides” (Mead Johnson & Company, priority 1981, dated 1982) are described below.

Where two headings read alike, the source gives them in different places. Some results are limits rather than exact numbers.

Series [1] is described as follows: Oral toxicity testing in mice (ALD50, ATD50). The following applies: mouse, in vivo. The procedure:
^(1) Various oral doses of from 5 mg/kg to 2000 mg/kg are given to 2
mice each; ALD50 is the approximate lethal dose for half the animals
ATD50 is the approximate lowest dose where signs of physiologic or […]

The subject of series [2] is Ventricular arrhythmia produced in mice by chloroform inhalation. Kind of series: Chloroform induced arrhythmia test in the mouse. Type of series: in vivo. Particulars: inhaled or nasal, 10 animals per dose, read-out: Antiarrhythmic Activity Mouse ED50. An excerpt: ^(2) Ventricular arrhythmia produced in mice by chloroform inhalation
10 animals per dose (Lawson, J. W., J. Pharmacol. Exp. Therap., 160, 22

Setting [3] is: mice, oral, approximate lethal dose for half the animals, read-out: Toxicity ALD50.
[4] abbreviates: mice, oral, approximate lowest dose where signs of physiologic or neurologic deficit appear, read-out: Toxicity ATD50.

By ED50 is commonly meant the midpoint of the dose-response relation.

In series [1] (po), `COc1ccc(C(=O)Nc2ccccc2CCC2CCCC[N+]2(C)Cc2ccccc2)cc1` (stereo not drawn) [IIb, 2-[2--[2-[(4-Methoxybenzoyl)amino]phenyl]ethyl]-1-methyl-1-(phenylmethyl)piperidinium Bromide Hydrate] showed an LD50 of more than 1000 mg/kg and a TD50 of 125 to 250 mg/kg. Moreover, the ED50 in series [2] worked out at 19 mg/kg.

With `COc1ccc(C(=O)Nc2ccccc2CCC2CCCCN2C)cc1` (stereo not drawn) [I, reference compound], the LD50 in series [1] (setting [3]) is 50 to 100 mg/kg. Moreover, the TD50 in series [1] (setting [4]) is 5 to 10 mg/kg. Besides, the ED50 in series [2] lay in the range of 7 to 15 mg/kg.

On to `COc1ccc(C(=O)Nc2ccccc2CCC2CCCC[N+]2(C)C)cc1.[I-]` (stereo not drawn) [IIa, 2-[2-[2-[(4-Methoxybenzoyl)amino]phenyl]ethyl]-1,1-dimethylpiperidinium Iodide], for which, in series [1] (setting [3]), the LD50 is more than 2000 mg/kg. Moreover, in series [1] (setting [4]), the TD50 was 250 mg/kg. In addition, the ED50 in series [2] amounted to 30.5 mg/kg.
